{
  "source": "paper PMC6838151",
  "about": "(Scientific Reports, 2019)",
  "key": {"[1]": {"test_system": "hASCs (p53, p21, BAX, BCL-2 transcripts)", "experiment": "Apoptosis-related transcripts by qRT-PCR in hASCs", "type": "cell-based, human", "conditions": "20 µM, 24 h; for expression of p53 gene / expression of p21 transcript / relative expression level of BAX / relative expression level of BCL-2: hASCs; for expression of p53 gene: vs control cells; for expression of p21 transcript: vs control group, p < 0.001; for relative expression level of BAX / relative expression level of BCL-2: vs control, differences not significant", "protocol": "Cellular apoptosis level was assessed using quantitative reverse transcriptase real-time polymerase chain reaction (qRT-PCR). First, the cells were seeded in a 24-well plate at a concentration of 3 × 10^4 cells/well in DMEM with Nutrient F-12 Ham complete medium and left in the CO2 incubator overnight to allow cells to attach. […] After 24 h of challenge with the compounds, the cells were homogenized with TRI Reagent and total RNA was isolated by phenol-chloroform extraction and ethanol precipitation. RNA purity and quantity were measured at a wavelength of 260 and 280 nm (Epoch, Biotek). Genomic DNA was removed with DNase I, RNase-free ([…]) (Thermo Scientific, Poland) and cDNA was synthesized using RevertAid First Strand cDNA Synthesis Kit (Thermo Scientific, Poland). 150 ng of total RNA served as a template for a single reaction using T100 Thermo Cycler (Bio-Rad, USA). The expression levels of p53 tumor suppressor, cyclin dependent kinase inhibitor 1A (p21), apoptosis regulators BAX and BCL-2 were determined. qRT-PCR was performed on a CFX Connect^TM Real-Time PCR Detection System (Bio-Rad) using SensiFast SYBR & Fluorescein Kit (Bioline, Cincinnati, OH, USA) and primer pairs as listed in Table S4 in ESI. 500 nM of specific primers and 1 µL of cDNA in a 10 µL final volume were applied in each reaction. The quantitative expression of the genes was calculated by the 2^−ΔΔCT method using GAPDH as housekeeping genes.\nStatistical analysis was performed with GraphPad Prism 5 software (San Diego, USA). All data values are presented as mean ± SD, measured in triplicates or more. Statistical significance between groups was determined using two-way ANOVA grouped analysis."}, "[2]": {"test_system": "S. cerevisiae AD1-8", "experiment": "MIC50 growth inhibition, S. cerevisiae AD1-8 (lacks major ABC transporters), 48 h", "type": "cell-based, Saccharomyces cerevisiae", "conditions": "for MIC50: Saccharomyces cerevisiae", "text": "The following strains of S. cerevisiae were used in this study: BY4741 (wild type towards erg6Δ, ACC Y00000; MATa; his3Δ1; leu2Δ0; met15Δ0; ura3Δ0), erg6Δ (ACC Y00568; BY4741 isogenic with YML008c::kanMX4), W303 (wild type towards AD1-8; MATα; leu2-3,112 trp1-1 can1-100 ura3-1 ade2-1 his3-11,15 AD1-8 (W303 isogenic with pdr1-3, ura3, his1, yor1∆::hisG, snq2∆::hisG, pdr5∆::hisG, pdr10∆::hisG, pdr11∆:: hisG, ycf1∆::hisG, pdr3∆::hisG, pdr15∆::hisG). BY4741 and erg6Δ were acquired from EUROSCARF, Frankfurt, Germany; W303 and AD1-8 were kind gifts from Prof. A. Goffeau, Chaire Internationale Blaise Pascal, Lab. Genet. Mol., École Normale Supérieure, Paris, and Prof. M. Ghislain, Université Catholique de Louvain, Faculté des sciences Agronomiques, Louvain-la-Neuve, Belgium. Visible turbid overnight cultures of S. cerevisiae strains were prepared and diluted to A600 ≈ 0.1 in fresh Yeast Extract – Peptone - Dextrose (YPD) medium. […] The yeast cultures were statically incubated at 30 °C for 48 hours with compounds[88]. The dose-response curves were analysed with GraphPad Prism 5 software (San Diego, USA) or a microplate reader ASYS UVM (Biogenet). All values presented are the mean of at least three independent experiments."}, "[3]": {"test_system": "C. albicans CAF2-1", "experiment": "microbe, parasite or virus in culture", "type": "cell-based, Candida albicans", "conditions": "for effect of combination with higher Flc concentrations: KeP (0.39 uM) / KeOP (1.56 uM) combined with 3.25 and 6.25 uM Flc, CAF2-1", "protocol": "The synergistic effects of KeOP/KeP with Flc were determined using the M27-A3 method with modifications. Flc and KeOP/KeP stock solutions in DMSO (10 mM) were (alone and simultaneously) diluted in RPMI-1640 medium to obtain final concentrations of^1/8; ^1/4; ^1/2; 1 × MIC50 towards C. albicans CAF2-1 strain in microdilution sterile plates (Sarstedt). Statistical significance analysis was performed using Student’s t-test ([…], unpaired) comparing viability in the presence of corresponding Flc concentrations with/without KeOP/KeP."}, "[4]": {"experiment": "Cytotoxicity IC50, TOX-8 resazurin assay, hASCs, 24 h", "type": "cell-based, human", "conditions": "female, human", "protocol": "Human Adipose Tissue-derived Stem Cells (hASCs) were isolated from subcutaneous adipose tissue fragments harvested from non-diabetic female donors (age range 33–38, n = 2) during standard surgical procedure of total hip arthroplasty. Immediately after collection of tissue, the samples were placed in sterile tissue-transport medium (Hank’s Balanced Salt Solution (HBSS) supplemented with 1% Penicillin/Streptomycin/Amphotericin B solution (P/S/A). Mesenchymal stromal cell isolation was performed using enzymatic digestion of extracellular matrix with collagenase type I. Before digestion, tissue specimens were washed twice with HBSS and incubated in collagenase type I solution (1 mg/mL) at 37 °C for 40 min. The digest was subsequently centrifuged (1200 × g; 10 minutes; room temperature) and the cell pellet was resuspended in Dulbecco’s modified Eagle’s medium (DMEM) with Nutrient F-12 Ham, 10% of Fetal Bovine Serum (FBS), and 1% of P/S/A, transferred to a culture flask, and kept in culture under optimal conditions (37 °C in a humidified atmosphere of 5% CO2). The medium was refreshed every 2–3 days. At 80–90% confluence, the cells were passaged using trypsin solution (TrypLE Express, Life Technologies, California, USA). At passage 3, hASCs were collected and cellular phenotype was confirmed by the high expression of markers CD44, CD29, CD73, CD105 and low expression of CD45. Moreover, the trilineage differentiation capacity of ASCs was confirmed as previously described.\nThe IC50 values were determined using in vitro Toxicology TOX-8 Assay Kit (resazurin based) according to the manufacturer’s protocol. For this assay, cells were seeded in a 96-well plate at a density of 5 × 10^3 cells/well. The cells were pre-incubated in drug-free complete medium for 24 h before adding various concentrations of the compounds to be investigated. Stock solutions of the compounds were prepared in DMSO following serial dilutions in DMEM with Nutrient F-12 Ham complete medium. The cells exposure period was 24 h. After that time media were replaced with 10% v/v resazurin dye solution in fresh complete culture medium. Incubation was carried out for 2 h at 37 °C in the CO2 incubator. Reduction of the dye was measured spectrophotometrically at 600 nm and 690 nm reference wavelength (Epoch, Biotek). Absorbance measurements allowed the determination of viable treated cells relative to untreated controls using the inflection point of a dose-response graph. IC50 values were estimated as duplicates of triplicate readings in two independent experiments."}, "[5]": {"test_system": "HepaRG cells", "conditions": "cited from earlier work"}, "[6]": {"conditions": "AD18, S. cerevisiae AD1-8, YPD, 30 °C, 48 h, read-out: MIC50"}, "[7]": {"conditions": "Candida albicans, CAF21, read-out: Viability of C. albicans CAF2-1"}, "[8]": {"conditions": "hASCs, TOX-8 assay, 24 h, read-out: IC50 (cytotoxicity, hASCs viability)"}},
  "note": "Where two headings read alike, the source gives them in different places.",
  "data": [
    {"compound": "O=P(CN1CCN(c2ccc(OC[C@H]3CO[C@](Cn4ccnc4)(c4ccc(Cl)cc4Cl)O3)cc2)CC1)(c1ccccc1)c1ccccc1", "note": "(racemic) [KeOP, Ph2P(O)CH2-Ke]", "values": [
      {"measurement": "induction of apoptosis in hASC cultures", "setting": "[1]", "result": "did not induce apoptosis"},
      {"measurement": "expression of p53 gene", "setting": "[1]", "result": "no significant changes"},
      {"measurement": "expression of p21 transcript", "setting": "[1]", "result": "elevated expression"},
      {"measurement": "relative expression level of BAX", "setting": "[1]", "result": "higher"},
      {"measurement": "relative expression level of BCL-2", "setting": "[1]", "result": "higher"},
      {"measurement": "MIC50", "setting": "[2]; [6]", "result": 0.05, "unit": "µM"},
      {"measurement": "viability at 0.1 µM", "setting": "[3]; [7]", "result": "102 ± 2.22", "unit": "%"},
      {"measurement": "viability at 0.2 µM", "setting": "[3]; [7]", "result": "93.9 ± 7.22", "unit": "%"},
      {"measurement": "viability at 0.39 µM", "setting": "[3]; [7]", "result": "91.2 ± 10.7", "unit": "%"},
      {"measurement": "effect of combination with higher Flc concentrations", "setting": "[3]", "result": "fungicidal effect"}
    ]},
    {"compound": "Clc1ccc([C@@]2(Cn3ccnc3)OC[C@H](COc3ccc(N4CCN(CP(c5ccccc5)c5ccccc5)CC4)cc3)O2)c(Cl)c1", "note": "(racemic) [KeP, Ph2PCH2-Ke]", "values": [
      {"measurement": "induction of apoptosis in hASC cultures", "setting": "[1]", "result": "did not induce apoptosis"},
      {"measurement": "expression of p53 gene", "setting": "[1]", "result": "no significant changes"},
      {"measurement": "expression of p21 transcript", "setting": "[1]", "result": "elevated expression"},
      {"measurement": "relative expression level of BAX", "setting": "[1]", "result": "higher"},
      {"measurement": "relative expression level of BCL-2", "setting": "[1]", "result": "higher"},
      {"measurement": "IC50 at 24 h", "setting": "[4]; IC50 (cytotoxicity, hASCs viability)", "result": 37.6, "unit": "µM"},
      {"measurement": "MIC50", "setting": "[2]; [6]", "result": 0.2, "unit": "µM"},
      {"measurement": "MIC50 of Flc in combination", "setting": "[3]; C. albicans CAF2-1, with KeP (0.39 uM), reduced from 6.25 uM", "result": 1.56, "unit": "µM"},
      {"measurement": "viability at 0.39 µM", "setting": "[3]; [7]", "result": "115 ± 9.06", "unit": "%"},
      {"measurement": "viability at 0.78 µM", "setting": "[3]; [7]", "result": "102 ± 1.98", "unit": "%"},
      {"measurement": "viability at 1.56 µM", "setting": "[3]; [7]", "result": "96.8 ± 3.21", "unit": "%"},
      {"measurement": "effect of combination with higher Flc concentrations", "setting": "[3]", "result": "fungicidal effect"}
    ]},
    {"compound": "CC(=O)N1CCN(c2ccc(OCC3COC(Cn4ccnc4)(c4ccc(Cl)cc4Cl)O3)cc2)CC1", "note": "(centres unmarked) [Ke, ketoconazole, reference compound]", "values": [
      {"measurement": "induction of apoptosis in hASC cultures", "setting": "[1]", "result": "did not induce apoptosis"},
      {"measurement": "expression of p53 gene", "setting": "[1]", "result": "no significant changes"},
      {"measurement": "expression of p21 transcript", "setting": "[1]", "result": "elevated expression"},
      {"measurement": "IC50 at 24 h", "setting": "[4]; [8]", "result": 121, "unit": "µM"},
      {"measurement": "MIC50", "setting": "[2]; AD18, 48 h", "result": 0.02, "unit": "µM"},
      {"measurement": "concentration at which cytotoxicity started", "setting": "[5]", "result": 100, "unit": "µM"}
    ]},
    {"compound": "S=P(CN1CCN(c2ccc(OC[C@H]3CO[C@](Cn4ccnc4)(c4ccc(Cl)cc4Cl)O3)cc2)CC1)(c1ccccc1)c1ccccc1", "note": "[KeSP, Ph2P(S)CH2-Ke]", "values": [
      {"measurement": "MIC50 against AD1-8 lower than against W303 cells", "setting": "[2]; AD1-8 vs W303", "result": "more than 3 orders of magnitude"},
      {"measurement": "MIC50", "setting": "[2]; AD18, 48 h", "result": 0.2, "unit": "µM"}
    ]},
    {"compound": "Clc1ccc([C@@]2(Cn3ccnc3)OC[C@H](COc3ccc(N4CCN(CP(=[Se])(c5ccccc5)c5ccccc5)CC4)cc3)O2)c(Cl)c1", "note": "[KeSeP, Ph2P(Se)CH2-Ke]", "values": [
      {"measurement": "IC50 at 24 h", "setting": "[4]; [8]", "result": 110, "unit": "µM"},
      {"measurement": "MIC50", "setting": "[2]; [6]", "result": 0.2, "unit": "µM"}
    ]}
  ]
}
